In PMC7927014, “Novel Small Molecule Hsp90/Cdc37 Interface Inhibitors Indirectly Target K-Ras-Signaling” (Cancers, 2021):

Columns and labels:
[1] = test system: MDA-MB-231 microtumors; experiment: Chick chorioallantoic membrane (CAM) microtumor assay; type: in vivo, chick embryo; settings: 5 days
Experimental: The fertilized eggs were incubated at 37 °C in a 55% to 60% humidified egg hatcher incubator (MG100, Fiem). After 8 days, 2 million MDA-MB-231 cells were resuspended in 1× PBS and Matrigel (BD Biosciences) at a ratio of 1:1, and were then deposited within sterilized 7 mm diameter plastic rings cut from a plastic pipette (cat. no. LW4111, Alpha Laboratories Limited) on a surface of chicken embryo CAM. The xenografted tumors were treated with 20 µL 0.1% DMSO vehicle control or the test compound diluted in 1× PBS once a day, starting from 24 h after cell seeding. The microtumors were harvested after 5 days of treatment. The microtumors were collected in pre-weighted 1.5 mL Eppendorf tubes containing 500 µL PBS, and the tumor mass was determined by the difference of the weights.

[2] = target: T1, Hsp90/Cdc37 (Homo sapiens, UniProt P07900); experiment: Hsp90/Cdc37 split Renilla luciferase assay, full length Hsp90 (cell lysate; IC50 and 20 μM validation); type: biochemical; settings: for IC50: full length Hsp90, split Renilla luciferase assay, cell lysate; for normalized RLU / Average RLU: MolPort Screening-3, tested concentration of drugs 20 μM; for normalized RLU: RLU normalized to DMSO (=1.00); for Average RLU: average of 3 wells (DMSO 248028)
T1 construct: The Hsp90/Cdc37 split Renilla luciferase assay using the full length Hsp90 for the compound screening was described previously; expressed in transfected cells; host or cells: HEK293 EBNA cells, cleared lysates
Experimental: In the second in silico screening of the FIMM database, we employed the four identified chemical scaffolds (Figure S2B) for the visual inspection of the FIMM compound library. […] All of the purchased compounds were validated in vitro at 20 μM using the split Renilla luciferase assay.
(§1) The Hsp90/Cdc37 split Renilla luciferase assay using the full length Hsp90 for the compound screening was described previously. […] After 48 h, the cells were trypsinized and washed with PBS. The harvested cells were lysed in 1 mL of the 1x lysis buffer provided in the Renilla Luciferase Reporter Assay System Kit from Promega (cat. E2820), and were incubated on ice for 10 min. The cell lysates were then cleared by centrifugation at 13,000× g for 1 min. […] After this, the screening/test compounds or DMSO—as indicated—were added to each well. In total, 5 µL NRL-Hsp90- or NRL-N-Hsp90-lysate was added to each well, one row at a time. Subsequently, the plate was incubated for 5 min at room temperature (RT). […] Just before the reading, 20 µL assay buffer containing 2× Renilla luciferase substrate (coelenterazine) was added. For the FIMM screening, sample wells were read on a PHERAstar plate reader (BMG LABTECH) at a gain level of 4000, after 10 s shaking, using a hypomorph of NRL-Hsp90. For the subsequent validations of the compounds, sample wells with the above-described assay constructs were read using a synergy H1 Hybrid Multi-Mode reader (BioTek) in the luminescence detection mode, as described previously in detail.

[3] = test system: K-RasG12V nanoclustering; experiment: K-RasG12V nanoclustering-FRET (FLIM-FRET) in HEK cells; type: cell-based; settings: 24 h, conglobatin A 2 μM, salinomycin 1.3 μM, 17-AAG 2 μM, CAY10585 10 μM, hit compounds indicated concentrations
Experimental: In total, 80,000 HEK cells were seeded in 12-well plates containing sterilized 16-mm coverslips and 1 mL medium. The next day, the cells were transfected using jetPRIME or FuGENE HD transfection reagent. For the donor fluorophore-only samples, the cells were transfected with 500 ng mGFP-tagged RasG12V plasmid. For the nanoclustering-FRET pair samples, the cells were transfected with both the donor and acceptor constructs, i.e., pmGFP- and pmCherry- RasG12V at a plasmid ratio of 1:3, respectively, and a total of 800 ng plasmids. The next day, the cells were treated with either 0.1% DMSO vehicle control or the indicated concentrations of compounds diluted in DMEM or RPMI medium for 24 h. For the gene silencing studies, the cells were transfected with the indicated amounts of siRNAs, together with the FRET pair constructs. The plasmids and siRNA were diluted in the same jetPRIME transfection buffer, followed by the addition of jetPRIME. […] The lifetime of the mGFP donor fluorophore was measured using a fluorescence microscope (Zeiss AXIO Observer D1) equipped with a fluorescence lifetime imaging attachment (Lambert Instruments), as described previously in detail. The apparent FRET efficiency (Eapp) was calculated as Eapp = (1 − τDA/τD) × 100%, with the measured fluorescence lifetimes τDA of the FRET sample and the τD of the donor-only sample.

[4] = target: T2, N-Hsp90/Cdc37 (Homo sapiens, UniProt P07900); experiment: N-Hsp90/Cdc37 split Renilla luciferase assay (N-terminal Hsp90 fragment, residues 1-223); type: biochemical; settings: cell lysate
T2 construct: only the N-terminal ATP-ase domain of Hsp90 (N-Hsp90, residues 1-223); expressed in transfected cells; host or cells: HEK293 EBNA cells, cleared lysates
Experimental: as §1

[5] = test system: MDA-MB-231 cells; experiment: 2D cell proliferation (alamarBlue); type: cell-based; settings: Homo sapiens, MDA-MB-231, 72 h
Experimental: Per well, 500–700 cells were seeded in 96-well flat bottom culture plates in 100 µL. After 24 h, the cells were treated with 0.1% DMSO vehicle control or test compounds diluted in a medium using a 1:2 dilution-series, starting at 100 µM. The plates were further incubated for 72 h. The cell viability was measured after the addition of 10% alamarBlue reagent per well (cat. no. DAL1100, Thermo Fisher Scientific). The fluorescence intensity (excitation 560 nm and emission 590 nm) was measured after 4 h by the use of a H1 Hybrid Multi-Mode reader.

SMILES	microtumor growth on CAM ([1]; MDA-MB-231, 20 μM)	IC50 [2] [µM]	K-RasG12V nanoclustering-FRET [3]	IC50 [4] [µM]	IC50 [5] [µM]	microtumor growth on CAM ([1]; MDA-MB-231, 10 μM)	normalized RLU [2]	Average RLU [2] [RLU]
CCOc1ccc(C(=O)c2ccc(O)c(O)c2O)cc1 [×1540, 2,3,4-TRIHYDROXY-4'-ETHOXYBENZOPHENONE]	significantly reduced	44 ± 18	displayed K-Ras-selectivity	44 ± 9	29 ± 3	–	–	–
C/C1=C\[C@H](C)C[C@H](C)[C@H](Cc2cnco2)OC(=O)/C(C)=C/[C@H](C)C[C@H](C)[C@H](Cc2cnco2)OC1=O [conglobatin A, reference compound]	–	23 ± 6	selective inhibition of K-RasG12V-	4.5 ± 0.8	32 ± 2	significantly reduced	0.40	98821
N=C(CSS(=O)(=O)O)NCC12CC3CC(CC(C3)C1)C2 [×6506, [({N-[(adamantan-1-yl)methyl]carbamimidoyl}methyl)sulfanyl]sulfonic acid]	significantly reduced	5 ± 1	displayed K-Ras-selectivity	4.1 ± 0.4	32.6 ± 0.5	–	0.11	26657
